≈ marks a conversion by molar mass, not a printed value.
Experiments:
[1] = test system: Respiratory syncytial virus recombinant with luciferase (RSV-Luc5); assay: microbe, parasite or virus in culture; type: cell-based; conditions: human respiratory syncytial virus, NHBE, 72 h, read-out: RSV NHBE EC50 (nM)
[2] = test system: SARS Coronavirus 2 recombinant with NanoLuc (SARS-CoV2-NLuc); assay: organism not typed; type: cell-based; conditions: 48 h
in vitro [3] = type: cell-based; conditions: human
in vitro [4] = type: in vitro ADME; conditions: human, s9, pH 7.4
How it was run: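 Intestinal S9 stability: compounds at 2 μM final in PMSF-free intestinal S9 (1.0 mg/mL protein, 100 mM PBS pH 7.4), duplicates, GS-7340 as positive control substrate. Samples at 0, 10, 20, 30, 60 and 120 min quenched; analyte quantified by LC-MS (Q-Exactive) as analyte/internal standard peak area ratio.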

in vitro [5] = type: in vitro ADME; conditions: human, s9, pH 7.4; remark: listed apart in the source
Method: Duplicate aliquots of test compound or positive control substrate (GS-7340) were added to S9 stock diluted with 100 mM potassium phosphate buffer, pH 7.4, to obtain a protein concentration of 2.4 mg/mL. The S9 metabolic reactions were initiated by the addition of the substrates to the S9 reaction mixture to a final concentration of 2 μM. At 2, 12, 25, 45, 65 and 90 min, 25 μL aliquots of the reaction mixture were transferred to plates containing 225 μl of IS/Q solution. After quenching, the plates were centrifuged at 3000×g for 30 minutes, and 150 μL aliquots of each supernatant were diluted with 150 μL water. Aliquots (10 μL) of the diluted supernatant were analyzed on a Thermo Q-Exactive mass spectrometer as described below. Quantification of test compounds and controls was performed by analyte/internal standard peak area ratio (PAR) values measured on a Thermo Q-Exactive mass spectrometer coupled to a Dionex UltiMate 3000 HPLC with a Leap Technologies HTC PAL autosampler. The column used was a Thermo Hypersil GOLD (1.9 μm particle size, 2.1×50 mm). Mobile phase A consisted of […] formic acid in water. Mobile phase B consisted of 0.1% (v/v) formic acid in acetonitrile. Elution of analytes was achieved by a series of linear gradients of acetonitrile in water containing 0.1% (v/v) formic acid. The mass spectrometer was calibrated on a weekly basis and mass tolerance of 5 ppm was used.

[6] = type: in vitro ADME; conditions: 2 μM
How it was run: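 Compound added to duplicate plasma aliquots at 37 °C to 2 μM final; sampled at 0.05, 0.5, 1, 2, 3 and 4 hr and quenched with internal-standard solution. Remaining compound quantified by analyte/internal standard peak area ratio by LC-HRMS (Q-Exactive, 5 ppm mass tolerance).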

[7] = test system: Caco-2 cells (clone C2BBel); assay: CACO-2 permeability; type: in vitro ADME; conditions: donor pH 6.5, receiver pH 7.4
physchem = type: physicochemical; conditions: pH 7, aqueous buffer, thermodynamic from solid
Method: The aqueous solubility of compounds over a time of 24 hours was assessed. Solubility was determined at ambient temperature in a 50 mM phosphate buffered pH7 solution with 150 mM NaCl (to achieve isotonicity). Solids were added to the buffered solution in 1.5-mL Eppendorf tubes, vortexed for 1 minute, then agitated for 24 hours in an Eppendorf ThermoMixer C. To determine concentration in solution, the suspensions were centrifuged for 15 min at 15,000 rpm. Supernatants were diluted to a volume of 1 mL with 30:70 v/v acetonitrile:water. All diluted supernatants were analyzed by UPLC using a Waters Acquity UPLC with a PDA UV detector.
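For CC50 in this document: uninfected MT-4 cells over 4-5 days by CellTiter-Glo.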

In the case of CC(=O)O[C@H]1[C@@H](OC(C)=O)[C@](C#N)(c2ccc3c(N)ncnn23)O[C@@H]1COC(=O)N1CCCCC1 [Compound 21, [(2R,3R,4R,5R)-3,4-diacetoxy-5-(4-aminopyrrolo[2,1-f][1,2,4]triazin-7-yl)-5-cyano-tetrahydrofuran-2-yl]methyl piperidine-1-carboxylate], the EC50 [1] is reported as over 50000 nM, the EC50 [2] is reported as over 50 µM and the CC50 (in vitro [3]) is reported as over 50 µM. For the same molecule, the half-life at 2 μM (in vitro [4]) was 40.4 s, the half-life at 2 μM (in vitro [5]) was at most 120 s and the “STA Human Plasma 37” value [6] was 11.334. For the same molecule, the “DM Caco2 A to B” value ([7]; forward (A to B)) was 3.99, the “DM Caco2 B to A” value ([7]; reverse (B to A)) was 19.68 and the solubility thermodynamic at 24 h (physchem) was 370 µg/mL (≈ 761 µM).

Source: patent US20250114369A1, “COMPOUNDS AND METHODS FOR TREATMENT OF VIRAL INFECTIONS” (Gilead Sciences, Inc., priority 2023, published 2025)
